# Measured values taken from US10618944B2, “Tumor suppressor SALL1 as a therapeutic agent for treating cancer” (Saint Louis University, priority 2015, dated 2020).
# Assays:
# MCF-7 = experiment: Senescence associated β-Galactosidase (SA-β-Gal) staining; type: cell-based, human; settings: for SALL1-induced senescent cell populations with MAPK inhibitor: 10 μM for 5 days, SALL1-transfected cells
# Experimental: (§1) Senescence associated β-Galactosidase (SA-β-Gal) activity in tumor cells was detected as previously described (30, 33). Briefly, tumor cell lines were transfected with or without plasmids and cultured for 3 or 5 days. Cells were washed in PBS (pH 7.2), fixed in 3% formaldehyde, and followed to incubate overnight at 37° C. with freshly prepared SA-β-Gal staining solution (1 mg/ml X-gal, 5 mM K3Fe[CN]6, 5 mM K4Fe[CN]6, 2 mM MgCl2 in PBS at pH 6.0). The stained cells were washed with H2O and examined with a microscope. For some experiments, SA-β-Gal^+ populations were determined in the transfected tumor cells in the presence of following various inhibitors or combined transfection with shRNAs: ATM inhibitor KU55933 (20 μM, Tocris Bioscience); mTOR inhibitor Rapmycin (5 μM, Sigma); MAPK inhibitors U0126 (10 μM), SB203580 (10 μM) and SP600125 (10 μM), or PI3 Kinase inhibitor Wortminnin (10 μM) (Calbiochemistry), or transfection with shRNAs against p38, ERK and mTOR, for 3 or 5 days. The treated tumor cells were then detected for SA-β-Gal expression.
# (§2) The methods for design and construction of shRNA specific for ERK1, ERK2, P38a, JNK1 and mTOR or scrambled lenti-shRNAs, and generation of recombinant lentivirus carrying GFP and shRNA, have been described previously (Peng et al., 2005 and Peng et al., 2007). For virus transfection, concentrated lentiviral supernatant with a multiplicity of infection (MOI) of 5-10 in a total volume of 0.5 ml culture medium was added to the tumor cells growing in 24 well plates containing 8 μg/ml polybrene (Sigma), and then centrifuged at 1000×g for 1 hr at room temperature. Tumor cells were sorted into GFP^+ and GFP^− cells with a FACS ARIA sorter at 3 or 4 days post-transfection. The sorted cells (GFP^+ and GFP^−) were then transfected with or without pcDNA3.1-SALL-1, and induction of senescence was determined.
# E0771 = experiment: as above; type: cell-based, murine; settings: for SALL1-induced senescent cell populations with MAPK inhibitor: 10 μM for 5 days, SALL1-transfected cells
# Experimental: as §1, §2
# [1] = system: ATM-associated DNA damage response in MCF-7; experiment: DNA damage response markers by FACS; type: cell-based, human; settings: KU55933 20 μM
# Experimental: (§3) The expression of DNA damage response markers on tumor cells were determined by FACS analysis after staining with anti-human specific antibodies conjugated with either PE or FITC. These human antibodies included: anti-phosphorylated H2Ax, anti-phosphorylated p53 bp, and anti-phosphorylated ATM, which were purchased from Cell Signaling Technology or BD Biosciences. All stained cells were analyzed on a FACSCalibur flow cytometer (BD Bioscience) and data analyzed with FlowJo software (Tree Star).
# [2] = system: ATM-associated DNA damage response in E0771; experiment: DNA damage response markers by FACS; type: cell-based, murine; settings: KU55933 20 μM
# Experimental: as §3
# [3] = pretreated 20 μM for 1 day, then SALL1 transfection, 3 days
Structure (SMILES),SALL1-induced senescent cell populations with MAPK inhibitor (MCF-7),SALL1-induced senescent cell populations with MAPK inhibitor (E0771),SALL1-induced senescence induction with ATM inhibitor (MCF-7; [3]),phosphorylation of ATM in SALL1-transfected tumor cells with inhibitor [1],phosphorylation of ATM in SALL1-transfected tumor cells with inhibitor [2],SALL1-induced senescence induction with ATM inhibitor (E0771; [3])
N#CC(=C(/N)Sc1ccccc1N)/C(C#N)=C(\N)Sc1ccccc1N [U0126],significantly reduced,significantly reduced,,,,
C[S+]([O-])c1ccc(-c2nc(-c3ccncc3)c(-c3ccc(F)cc3)[nH]2)cc1 (centres unmarked) [SB203580],significantly reduced,significantly reduced,,,,
O=c1cc(-c2cccc3c2Sc2ccccc2S3)oc(N2CCOCC2)c1 [KU55933],,,prevented the senescence induction,dramatically suppressed,dramatically suppressed,prevented the senescence induction
